From patent publication US20100298141A1, “SUBSTITUTED PYRIDINE N-OXIDE HERBICIDES” (E. I. DU PONT DE NEMOURS AND COMPANY, priority 2007, published 2010)

Assays:
winter wheat (TRZAW) = assay: Test H preemergence mixtures of compound 2 with crop safeners; type: in vivo, Triticum aestivum; set-up: key to TRZAW Obsd. (observed effect): observed % effect, visually evaluated vs controls
corn (ZEAMD) = assay: Test I preemergence mixtures of compound 2 with crop safeners; type: in vivo, Zea mays cv. ‘Pioneer 33G26’; settings: alone
Description: Seeds of test plants consisting of winter wheat (TRZAW, Triticum aestivum), corn (ZEAMD, Zea mays cv. ‘Pioneer 33G26’), wild oat (AVEFA, Avena fatua), and Italian ryegrass (LOLMU, Lolium multiflorum) were planted into a blend of loam soil and sand and treated preemergence with a directed soil spray using test chemicals formulated in a non-phytotoxic solvent mixture that included a surfactant. Seeds of small-seeded species were planted about 1 cm deep; larger seeds were planted about 2.5 cm deep. […] Balanced fertilizer was applied through the watering system. Treatments consisted of Compound 2 and the above mentioned safeners alone and in combination using a spray volume of 457 L/ha. Each treatment was replicated four times. Treated plants and controls were maintained in a greenhouse for 14 to 21 days, after which time all species were compared to controls and visually evaluated. […] A dash (-) response means no test result. Colby's Equation was used to determine the herbicidal effects expected from the mixtures. Colby's Equation (Colby, S. […] Pa+b=Pa+Pb−(PaPb/100) wherein • Pa+b is the percentage effect of the mixture expected from additive contribution of the individual components, • Pa is the observed percentage effect of the first active ingredient at the same use rate as in the mixture, and • Pb is the observed percentage effect of the second active ingredient at the same use rate as in the mixture.

[1] = tested on: smallflower umbrella sedge; assay: Test E flooded paddy test; type: in vivo, Cyperus difformis; settings: Flood, after 21 days, scale 0 to 100
Description: (§1) Three plastic pots (ca. 16-cm diameter) per rate were partially filled with sterilized Tama silt loam soil comprising a 35:50:15 ratio of sand, silt and clay and 2.6% organic matter. Separate plantings for each of the three pots were as follows. Seeds from the U.S. of ducksalad (Heteranthera limosa), smallflower umbrella sedge (Cyperus difformis) and purple […] coccinea), were planted into one 16-cm pot for each rate. […] Seeds from the U.S. of barnyardgrass (Echinochloa crus-galli), late watergrass (Echinochloa oryzicola), early watergrass (Echinochloa oryzoides) and junglerice (Echinochloa colona) were planted into one 16-cm pot for each rate. Plantings were sequential so that crop and weed species were at the 2.0 to 2.5-leaf stage at time of treatment. Potted plants were grown in a greenhouse with day/night temperature settings of 30/27° C., and supplemental balanced lighting was provided to maintain a 16-hour photoperiod. Test pots were maintained in the greenhouse until test completion. At time of treatment, test pots were flooded to 3 cm above the soil surface, treated by application of test compounds directly to the paddy water, and then maintained at that water depth for the duration of the test. Effects of treatments on rice and weeds were visually evaluated by comparison to untreated controls after 21 days. […] A dash (-) response means no test result.

purple redstem = assay: Test E flooded paddy test; type: in vivo, Ammannia coccinea; settings: Flood, after 21 days, scale 0 to 100
Description: as §1

rice flatsedge = assay: Test E flooded paddy test; type: in vivo, Cyperus iria; settings: Flood, after 21 days, scale 0 to 100
Description: as §1

bearded sprangletop = assay: Test E flooded paddy test; type: in vivo, Leptochloa fascicularis; settings: Flood, after 21 days, scale 0 to 100
Description: as §1

[2] = tested on: water seeded rice seedlings; assay: Test E flooded paddy test; type: in vivo, Oryza sativa cv. ‘Japonica -M202’; settings: Flood, after 21 days, scale 0 to 100
Description: as §1

[3] = tested on: transplanted rice seedlings; assay: Test E flooded paddy test; type: in vivo, Oryza sativa cv. ‘Japonica-M202’; settings: Flood, after 21 days, scale 0 to 100
Description: as §1

late watergrass = assay: Test E flooded paddy test; type: in vivo, Echinochloa oryzicola; settings: Flood, after 21 days, scale 0 to 100
Description: as §1

early watergrass = assay: Test E flooded paddy test; type: in vivo, Echinochloa oryzoides; settings: Flood, after 21 days, scale 0 to 100
Description: as §1

SMILES	Plant response rating, Sedge, Umbrella ([1]; 64 g ai/ha)	Plant response rating, Sedge, Umbrella ([1]; 125 g ai/ha)	Plant response rating, Sedge, Umbrella ([1]; 250 g ai/ha)	Plant response rating, Redstem (purple redstem; 64 g ai/ha)	Plant response rating, Redstem (purple redstem; 125 g ai/ha)	Plant response rating, Redstem (purple redstem; 250 g ai/ha)	Plant response rating, Flatsedge, Rice (rice flatsedge; 64 g ai/ha)	Plant response rating, Flatsedge, Rice (rice flatsedge; 125 g ai/ha)	Plant response rating, Flatsedge, Rice (rice flatsedge; 250 g ai/ha)	Plant response rating, Sprangletop, Brdd. (bearded sprangletop; 64 g ai/ha)	Plant response rating, Sprangletop, Brdd. (bearded sprangletop; 125 g ai/ha)	Plant response rating, Sprangletop, Brdd. (bearded sprangletop; 250 g ai/ha)	Plant response rating, Rice, Waterseeded ([2]; 64 g ai/ha)	Plant response rating, Rice, Waterseeded ([2]; 125 g ai/ha)	Plant response rating, Rice, Transplanted ([3]; 64 g ai/ha)	Plant response rating, Rice, Transplanted ([3]; 125 g ai/ha)	Plant response rating, Watergrass, Late (late watergrass; 64 g ai/ha)	Plant response rating, Watergrass, Late (late watergrass; 125 g ai/ha)	Plant response rating, Watergrass, Late (late watergrass; 250 g ai/ha)	Plant response rating, Watergrass, Early (early watergrass; 64 g ai/ha)	other results
Cc1cc[n+]([O-])c(S(=O)(=O)Cc2c(C(F)(F)F)nn(C)c2OC(F)F)c1 [Compound 2]	–	–	–	–	–	–	–	–	–	–	–	–	–	–	–	–	–	–	–	–	Plant response rating TRZAW Obsd. (winter wheat (TRZAW); Cmpd 2 alone 125 g a.i./ha, scale 0 to 100, mean of four replicates): 63; TRZAW Obsd. (observed effect) (winter wheat (TRZAW); Test H, alone, 125 g a.i./ha): 63; ZEAMD Obsd. (observed effect) (corn (ZEAMD); 125 g a.i./ha): 69; ZEAMD Obsd. (observed effect) (corn (ZEAMD); 250 g a.i./ha): 93
Cn1nc(C(F)(F)F)c(C[S+]([O-])c2cc(Br)cc[n+]2[O-])c1Cl (racemic) [Compound 35]	85	85	100	85	85	100	70	80	95	90	90	90	0	20	0	15	0	30	60	0	Plant response rating, Sedge, Umbrella ([1]; 16 g ai/ha): 0; Plant response rating, Sedge, Umbrella ([1]; 32 g ai/ha): 45; Plant response rating, Redstem (purple redstem; 16 g ai/ha): 0; Plant response rating, Redstem (purple redstem; 32 g ai/ha): 45; Plant response rating, Flatsedge, Rice (rice flatsedge; 16 g ai/ha): 0; Plant response rating, Flatsedge, Rice (rice flatsedge; 32 g ai/ha): 30; Plant response rating, Sprangletop, Brdd. (bearded sprangletop; 16 g ai/ha): 0; Plant response rating, Sprangletop, Brdd. (bearded sprangletop; 32 g ai/ha): 90; Plant response rating, Rice, Waterseeded ([2]; 16 g ai/ha): 0; Plant response rating, Rice, Waterseeded ([2]; 32 g ai/ha): 0; Plant response rating, Rice, Waterseeded ([2]; 250 g ai/ha): 30; Plant response rating, Rice, Transplanted ([3]; 16 g ai/ha): 0; Plant response rating, Rice, Transplanted ([3]; 32 g ai/ha): 0; Plant response rating, Rice, Transplanted ([3]; 250 g ai/ha): 15; Plant response rating, Watergrass, Late (late watergrass; 16 g ai/ha): 0; Plant response rating, Watergrass, Late (late watergrass; 32 g ai/ha): 0; Plant response rating, Watergrass, Early (early watergrass; 16 g ai/ha): 0; Plant response rating, Watergrass, Early (early watergrass; 32 g ai/ha): 0; Plant response rating, Watergrass, Early (early watergrass; 125 g ai/ha): 20; Plant response rating, Watergrass, Early (early watergrass; 250 g ai/ha): 40
C#CCOc1c(C[S+]([O-])c2cccc[n+]2[O-])c(C(F)(F)F)nn1C (centres unmarked) [Compound 76]	60	90	95	0	40	95	85	95	95	20	70	70	10	10	10	10	0	40	75	0	Plant response rating, Sedge, Umbrella ([1]; 500 g ai/ha): 95; Plant response rating, Sedge, Umbrella ([1]; 1000 g ai/ha): 95; Plant response rating, Redstem (purple redstem; 500 g ai/ha): 100; Plant response rating, Redstem (purple redstem; 1000 g ai/ha): 100; Plant response rating, Flatsedge, Rice (rice flatsedge; 500 g ai/ha): 100; Plant response rating, Flatsedge, Rice (rice flatsedge; 1000 g ai/ha): 100; Plant response rating, Sprangletop, Brdd. (bearded sprangletop; 500 g ai/ha): 65; Plant response rating, Sprangletop, Brdd. (bearded sprangletop; 1000 g ai/ha): 65; Plant response rating, Rice, Waterseeded ([2]; 1000 g ai/ha): 40; Plant response rating, Rice, Transplanted ([3]; 1000 g ai/ha): 40; Plant response rating, Watergrass, Late (late watergrass; 500 g ai/ha): 95; Plant response rating, Watergrass, Late (late watergrass; 1000 g ai/ha): 95; Plant response rating, Watergrass, Early (early watergrass; 125 g ai/ha): 50; Plant response rating, Watergrass, Early (early watergrass; 250 g ai/ha): 75; Plant response rating, Watergrass, Early (early watergrass; 500 g ai/ha): 100; Plant response rating, Watergrass, Early (early watergrass; 1000 g ai/ha): 100
